# In patent US20130204033A1, “ANTIPROLIFERATIVE COMPOUNDS, CONJUGATES THEREOF, METHODS THEREFOR, AND USES THEREOF” (Medarex, Inc., priority 2009, published 2013):
# Like-named read-outs stand apart in the source and are kept apart here.
# Legend:
# Format in all cases: cell-based, human
# [1] = test system: HL-60; test: ATP luminescence proliferation assay, HL-60
# Procedure: (§1) This example generally describes the procedures used to assay the antiproliferative activity of compounds of this invention or their conjugates. Human tumor cell lines were obtained from the American Type Culture Collection (ATCC), P.O. Box 1549, Manassas, Va. 20108, USA, and cultured according to instruction from the ATCC. Cells were seeded at 1.0×10^3 or 1.0×10^4 cells/well in 96-well plates for 3 h for ATP assays or ^3H thymidine assays, respectively. 1:3 serial dilutions of free (unconjugated) compounds or their conjugates were added to the wells. Plates were allowed to incubate for 24 to 72 h. The ^3H thymidine plates were pulsed with 1.0 μCi of ^3H-thymidine per well for the last 24 hours of the total incubation period, harvested, and read on a Top Count Scintillation Counter (Packard Instruments, Meriden, Conn.). ATP levels in the ATP plates were measured using the […]-GLO® Luminescent Cell Viability kit following the manufacturer's manual and read on a GLOMAX® 20/20 luminometer (both from Promega, Madison, Wis., USA). The EC50 values—the concentration at which an agent inhibits or reduces cell proliferation by 50% —were determined using PRISM™ software, version 4.0 (GraphPad Software, La Jolla, Calif., USA).
# (§2) Using the ^3H thymidine or the ATP luminescence assay, or both, the activities of compounds of this invention were assayed against the following cancer cell lines: HCT-15 (colorectal cancer, multi-drug resistant (MDR)); Hep3B (liver cancer); LNCaP (prostate cancer, androgen receptor positive (AR^+)); MDA-MB-231 (breast cancer, estrogen receptor, progesterone receptor, and Her2 negative (triple negative)); A2058 (melanoma); U-87 MG (glioblastoma); NCI-H460 (NSCLC); A549 (NSCLC); HPAC (pancreatic cancer, primary); PC3 (prostate cancer, AR); BT474 (breast cancer, Her2 highly positive (Her2hi)); SKOV3 (ovarian cancer, Her2hi); 786-O (renal cancer); UO-31 (renal cancer, MDR); NCI-H740 (SCLC); DMS53 (SCLC); SK-BR3 (breast cancer, Her2hi); ZR-75 (breast cancer, estrogen receptor positive); OVCAR3 (ovarian cancer); HL-60 (APL); OVCAR8/Adr (ovarian cancer, MDR); CEM-Cl (ALL); Nomo-1 (AML); RPMI-8226 (MM)); Raji (lymphoma); SW-480 (colorectal cancer, metastatic); SW-620 (colorectal cancer); and H226 (lung cancer). (Not all compounds were assayed against all cell lines.)
# (§3) FIGS. 12a and 12b show illustrative plots for ATP luminescence proliferation assays for a second set of compounds of this invention, against HL-60 and 786-O cells, respectively, with an incubation period of 72 h. FIGS. 12c and 12d show the plots for ^3H thymidine proliferation assays for the same set of compounds, again against HL-60 and 786-O cells, respectively, with a 72 h incubation period. In each instance, doxorubicin was used as a comparative compound.
# (§4) Table 3 provides the data for the ATP luminescence proliferation assays, with an incubation period of 48, 72, or 96 h, as noted.
# [2] = test system: OVCAR3; test: ATP luminescence proliferation assay, OVCAR3
# Procedure: as §1, §2, §4
# [3] = test system: OVCAR8/Adr; test: ATP luminescence proliferation assay, OVCAR8/Adr; details: read-out: EC50 against the OVACAR8/Adr cell line
# Procedure: as §1, §2, §4
# [4] = test system: 786-O; test: ATP luminescence proliferation assay, 786-O
# Procedure: as §1, §2, §3, §4
# [5] = test system: H226; test: ATP luminescence proliferation assay, H226; details: read-out: EC50 against the H226 cell line
# Procedure: as §1, with “The EC50 values—the concentration at which an agent inhibits or reduces cell proliferation by 50% —were determined using PRISM™ software, version 4.0 (GraphPad Software, La Jolla, Calif., USA).” left out
# as §2, with “(Not all compounds were assayed against all cell lines.)” left out
# [6] = test system: Hep3B; test: 3H thymidine proliferation assay, Hep3B; details: Homo sapiens, Hep3B, read-out: EC50, Hep3B, 3H thymidine method, 72 h incubation
# Procedure: as §1, §2
# (§5) Table 2 provides the data for proliferation assays using the ^3H thymidine method, with an incubation period of 72 h.
# [7] = test system: RPMI-8226; test: 3H thymidine proliferation assay, RPMI-8226; details: Homo sapiens, RPMI-8226, read-out: EC50, RPMI-8226, 3H thymidine method, 72 h incubation
# Procedure: as §1, §2, §5
# [8] = test system: ZR-75; test: 3H thymidine proliferation assay, ZR-75; details: Homo sapiens, ZR75, read-out: EC50, ZR-75, 3H thymidine method, 72 h incubation
# Procedure: as §1, §2, §5
# [9] = test system: UO-31; test: 3H thymidine proliferation assay, UO-31; details: Homo sapiens, UO-31, read-out: EC50, UO-31, 3H thymidine method, 72 h incubation
# Procedure: as §1, §2, §5
# [10] = test system: A2058; test: 3H thymidine proliferation assay, A2058; details: Homo sapiens, A2058; 3H thymidine method, 72 h incubation
# Procedure: as §1, §2, §5
# [11] = test system: MDA-MB-231; test: 3H thymidine proliferation assay, MDA-MB-231; details: Homo sapiens, MDA-MB-231, read-out: EC50, MDA-MB-231, 3H thymidine method, 72 h incubation
# Procedure: as §1, §2, §5
# [12] = test system: BT474; test: 3H thymidine proliferation assay, BT474; details: Homo sapiens, BT-474, read-out: EC50, BT474, 3H thymidine method, 72 h incubation
# Procedure: as §1, §2, §5
# [13] = test system: OVCAR8; test: 3H thymidine proliferation assay, OVCAR8; details: Homo sapiens, OVCAR-8, read-out: EC50, OVCAR8, 3H thymidine method, 72 h incubation
# Procedure: as §1, §2, §5
# [14] = test system: Nomo-1; test: 3H thymidine proliferation assay, Nomo-1; details: Homo sapiens, NOMO-1, read-out: EC50, Nomo-1, 3H thymidine method, 72 h incubation
# Procedure: as §1, §2, §5
# [15] = test system: LNCaP; test: 3H thymidine proliferation assay, LNCaP; details: Homo sapiens, LNCaP, read-out: EC50, LNCaP, 3H thymidine method, 72 h incubation
# Procedure: as §1, §2, §5
# [16] = test system: A549; test: 3H thymidine proliferation assay, A549; details: Homo sapiens, A549, read-out: EC50, A549, 3H thymidine method, 72 h incubation
# Procedure: as §1, §2, §5
# [17] = test system: HPAC; test: 3H thymidine proliferation assay, HPAC; details: Homo sapiens, HPAC, read-out: EC50, HPAC, 3H thymidine method, 72 h incubation
# Procedure: as §1, §2, §5
# [18] = test system: OVCAR3; test: 3H thymidine proliferation assay, OVCAR3; details: Homo sapiens, OVCAR-3, read-out: EC50, OVCAR3, 3H thymidine method, 72 h incubation
# Procedure: as §1, §2, §5
# [19] = test system: U-87 MG; test: 3H thymidine proliferation assay, U-87 MG; details: Homo sapiens, U-87 MG, read-out: EC50, U-87 MG, 3H thymidine method, 72 h incubation
# Procedure: as §1, §2, §5
# [20] = test system: DMS53; test: 3H thymidine proliferation assay, DMS53; details: Homo sapiens, DMS-53, read-out: EC50, DMS53, 3H thymidine method, 72 h incubation
# Procedure: as §1, §2, §5
# [21] = test system: Raji; test: 3H thymidine proliferation assay, Raji; details: Homo sapiens, Raji, read-out: EC50, Raji, 3H thymidine method, 72 h incubation
# Procedure: as §1, §2, §5
# [22] = test system: PC3; test: 3H thymidine proliferation assay, PC3; details: Homo sapiens, PC-3, read-out: EC50, PC3, 3H thymidine method, 72 h incubation
# Procedure: as §1, §2, §5
# [23] = test system: SKOV3; test: 3H thymidine proliferation assay, SKOV3; details: Homo sapiens, SK-OV-3, read-out: EC50, SKOV3, 3H thymidine method, 72 h incubation
# Procedure: as §1, §2, §5
# [24] = test system: HCT-15; test: 3H thymidine proliferation assay, HCT-15; details: Homo sapiens, HCT-15, read-out: EC50, HCT-15, 3H thymidine method, 72 h incubation
# Procedure: as §1, §2, §5
# [25] = test system: HL-60; test: 3H thymidine proliferation assay, HL-60; details: Homo sapiens, HL-60, read-out: EC50, HL-60, 3H thymidine method, 72 h incubation
# Procedure: as §1, §2, §5
# [26] = test system: CEM-C1; test: 3H thymidine proliferation assay, CEM-C1; details: Homo sapiens, CEM/C1, read-out: EC50, CEM-C1, 3H thymidine method, 72 h incubation
# Procedure: as §1, §2, §5
# [27] = test system: H740; test: 3H thymidine proliferation assay, H740; details: Homo sapiens, read-out: EC50, H740, 3H thymidine method, 72 h incubation
# Procedure: as §1, §2, §5
# [28] = test system: SK-BR3; test: 3H thymidine proliferation assay, SK-BR3; details: Homo sapiens, SK-BR-3; 3H thymidine method, 72 h incubation
# Procedure: as §1, §2, §5
# [29] = test system: NCI-H460; test: 3H thymidine proliferation assay, NCI-H460; details: Homo sapiens, NCI-H460, read-out: EC50, NCI-H460, 3H thymidine method, 72 h incubation
# Procedure: as §1, §2, §5
# [30] = test system: 786-O; test: 3H thymidine proliferation assay, 786-O; details: Homo sapiens, 786-0, read-out: EC50, 786-O, 3H thymidine method, 72 h incubation
# Procedure: as §1, §2, §5
# [31] = test system: HCT-15; test: ATP luminescence proliferation assay, HCT-15; details: ATP luminescence, HCT-15, 72 h incubation; read-out: EC50 HCT-15 (72 h)
# Procedure: as §1, §2, §4
# [32] = ATP luminescence, HL-60, 48 h incubation, read-out: EC50 HL-60 (48 h)
# [33] = ATP luminescence, 786-O, 72 h incubation, read-out: EC50 786-O (72 h)
structure (smiles),measurement,setting,value
CCCN(C(=O)[C@@H](NC(=O)[C@H]1CCCCN1C)[C@@H](C)CC)[C@H](C[C@@H](OC(C)=O)c1nc(C(=O)N[C@@H](Cc2ccc(N)cc2)CC(C)C(=O)OCC)cs1)C(C)C (stereo partly shown) [Compound 112],EC50,"[1]; Homo sapiens, HL-60, 48 h, read-out: EC50 HL-60 (48 h), ATP luminescence, HL-60, 48 h incubation",0.05 to 0.09 nM
same,EC50,"[2]; Homo sapiens, OVCAR-3, 72 h, read-out: EC50 OVCAR3 (72 h), ATP luminescence, OVCAR3, 72 h incubation",0.049 nM
same,EC50,"[3]; Homo sapiens, OVCAR-8, 48 h incubation period",12 nM
same,EC50,"[4]; Homo sapiens, 786-0, 72 h, read-out: EC50 786-O (72 h), ATP luminescence, 786-O, 72 h incubation",0.67 nM
same,EC50,"[5]; Homo sapiens, NCI-H226, 72 h incubation period",0.67 to 1.16 nM
CC[C@H](C)[C@H](NC(=O)[C@H]1CCCCN1C)C(=O)N(C)[C@H](C[C@@H](OC(C)=O)c1nc(C(=O)N[C@@H](Cc2ccc(N)cc2)CC(C)C(=O)OC)cs1)C(C)C (stereo partly shown) [Compound 36a],EC50,[1]; [32],0.048 nM
same,EC50,[3]; 48 h incubation period,17.1 nM
same,EC50,[4]; [33],0.434 nM
same,EC50,[5]; 72 h incubation period,0.307 nM
CC[C@H](C)[C@H](NC(=O)[C@H]1CCCCN1C)C(=O)N(C)[C@H](C[C@@H](OC)c1nc(C(=O)N[C@@H](C)C(=O)N[C@@H](Cc2ccccc2)C(=O)OC)cs1)C(C)C [Compound 26a],EC50,[6],36 nM
same,EC50,[7],22 nM
same,EC50,[8],56 nM
same,EC50,[9],> 100 nM
same,EC50,[10],> 100 nM
same,EC50,[11],> 100 nM
same,EC50,[12],7 nM
same,EC50,[13],100 nM
same,EC50,[14],2 nM
same,EC50,[15],80 nM
same,EC50,[16],> 100 nM
same,EC50,[17],> 100 nM
same,EC50,[18],21 nM
same,EC50,[19],71 nM
same,EC50,[20],> 100 nM
same,EC50,[21],20 nM
same,EC50,[22],> 100 nM
same,EC50,[23],47 nM
same,EC50,[24],> 100 nM
same,EC50,[25],10 nM
same,EC50,[26],10 nM
same,EC50,[27],3.2 nM
same,EC50,[28],158 nM
same,EC50,[29],> 100 nM
same,EC50,[30],> 100 nM
CCOC(=O)C(C)C[C@H](Cc1ccc(N)cc1)NC(=O)c1csc([C@@H](C[C@H](C(C)C)N(COC(=O)CC(C)C)C(=O)[C@@H](NC(=O)[C@H]2CCCCN2C)[C@@H](C)CC)OC)n1 (stereo partly shown) [Compound 133],EC50,[4]; [33],4.17 nM
CC[C@H](C)[C@H](NC(=O)[C@H]1CCCCN1C)C(=O)N(C)[C@H](C[C@@H](OC(C)=O)c1nc(C(=O)N[C@@H](Cc2ccc(N)cc2)C[C@@H](C)C(=O)O)cs1)C(C)C [Compound 84b],EC50,[1]; [32],16 to 27 nM
same,EC50,"[2]; ATP luminescence, OVCAR3, 48 h incubation, read-out: EC50 OVCAR3 (48 h)",4.91 nM
same,EC50,[31],22.8 nM
same,EC50,[3]; 48 h incubation period,47.2 nM
same,EC50,"[4]; ATP luminescence, 786-O, 48 h incubation, read-out: EC50 786-O (48 h)",4.1 nM
